Experiments:
BRAF V600E = target: T1, BRAF V600E (Homo sapiens, UniProt P15056, V600E); test: Cellular assay of target protein degradation, T-Rex 293 cells stably transfected with HA-BRAF_V600E (HA immunofluorescence, high content imaging); format: cell-based; settings: T-Rex 293 HA-BRAF V600E; for DC50: half maximal degradation, read-out: BRaf V600E DC50; for Dmax: maximum degradation observed
T1 construct: expressed in transfected cells
How it was run: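 24 h compound exposure, 1 μM–0.1 nM final, 0.1% DMSO, 37 °C; cells induced with 1 ng/mL doxycycline. PFA fix, Triton permeabilize, anti-HA overnight 4 °C, Hoechst/phalloidin counterstain. Output: DC50, Dmax as % control.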

BRAF G466V = target: T2, BRAF G466V (Homo sapiens, UniProt P15056, G466V); test: Cellular assay of target protein degradation, T-Rex 293 cells stably transfected with HA-BRAF G466V (HA immunofluorescence, high content imaging); format: cell-based; settings: T-Rex 293 HA-BRAF G466V; for DC50: half maximal degradation, read-out: BRaf G466V DC50; for Dmax: maximum degradation observed
T2 construct: expressed in transfected cells
How it was run: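 24 h compound, 30 nM–3 pM final, 0.1% DMSO, 37° C; HA-BRAF G466V induced with 0.75 ng/mL doxycycline. PFA fix, Triton perm, anti-HA + Alexa fluor secondary, Hoechst/phalloidin counterstain; imaging. DC50, Dmax (% of control).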

T2 sequence (P15056 whole entry G466V): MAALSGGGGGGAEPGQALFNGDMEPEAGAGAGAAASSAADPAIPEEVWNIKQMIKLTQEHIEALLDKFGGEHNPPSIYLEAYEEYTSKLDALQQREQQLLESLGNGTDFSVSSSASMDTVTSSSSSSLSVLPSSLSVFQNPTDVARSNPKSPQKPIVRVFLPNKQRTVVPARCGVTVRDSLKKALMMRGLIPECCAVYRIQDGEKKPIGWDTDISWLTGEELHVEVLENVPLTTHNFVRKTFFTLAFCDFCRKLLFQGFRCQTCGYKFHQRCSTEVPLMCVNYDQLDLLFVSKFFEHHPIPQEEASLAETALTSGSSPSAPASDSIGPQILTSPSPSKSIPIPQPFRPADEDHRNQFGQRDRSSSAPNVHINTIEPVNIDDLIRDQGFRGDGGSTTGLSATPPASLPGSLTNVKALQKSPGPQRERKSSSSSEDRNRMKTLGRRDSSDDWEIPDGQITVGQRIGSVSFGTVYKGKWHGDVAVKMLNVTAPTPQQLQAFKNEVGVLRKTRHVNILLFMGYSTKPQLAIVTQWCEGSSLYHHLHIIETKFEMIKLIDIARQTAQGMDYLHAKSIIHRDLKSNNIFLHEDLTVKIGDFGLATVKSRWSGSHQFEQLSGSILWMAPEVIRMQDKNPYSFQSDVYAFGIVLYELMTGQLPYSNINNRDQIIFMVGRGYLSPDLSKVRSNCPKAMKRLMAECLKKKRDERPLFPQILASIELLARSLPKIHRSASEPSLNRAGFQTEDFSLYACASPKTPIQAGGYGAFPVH
T1 sequence (P15056 whole entry V600E): as the sequence (P15056 whole entry G466V) above, with V466G, V600E counted along it

O=C1CCC(N2Cc3cc(C4CCN(C[C@@H]5C[C@H]6CC[C@@H](C5)N6c5ccc(-c6cnc7[nH]cc(C(=O)c8c(F)ccc(NS(=O)(=O)N9CC[C@@H](F)C9)c8F)c7c6)cc5)CC4)ccc3C2=O)C(=O)N1 (stereo partly drawn) [Compound 180, (3R)-N-[3-(5-{4-[(1R,3S,5S)-3-({4-[2-(2,6-dioxopiperidin-3-yl)-1-oxo-2,3-dihydro-1H-isoindol-5-yl]piperidin-1-yl}methyl)-8-azabicyclo[3.2.1]octan-8-yl]phenyl}-1H-pyrrolo[2,3-b]pyridine-3-carbonyl)-2,4-difluorophenyl]-3-fluoropyrrolidine-1-sulfonamide]
DC50 (BRAF V600E): 0.005 to 0.05 µM
Dmax (BRAF V600E): 35 to 70%
DC50 (BRAF G466V): 0.001 to 0.01 µM
Dmax (BRAF G466V): > 70%

CNc1cc(-c2cnc3[nH]cc(C(=O)c4c(F)ccc(NS(=O)(=O)N5CC[C@@H](F)C5)c4F)c3c2)cc(NC)c1N1CCC(CN2CCC(c3ccc4c(c3)CN(C3CCC(=O)NC3=O)C4=O)CC2)CC1 (stereo partly drawn) [Compound 285, (3R)-N-[3-(5-{4-[4-({4-[2-(2,6-dioxopiperidin-3-yl)-1-oxo-2,3-dihydro-1H-isoindol-5-yl]piperidin-1-yl}methyl)piperidin-1-yl]-3,5-bis(methylamino)phenyl}-1H-pyrrolo[2,3-b]pyridine-3-carbonyl)-2,4-difluorophenyl]-3-fluoropyrrolidine-1-sulfonamide]
DC50 (BRAF V600E): 0.005 to 0.05 µM
Dmax (BRAF V600E): < 35%
DC50 (BRAF G466V): 0.001 to 0.01 µM
Dmax (BRAF G466V): 35 to 70%

O=C1CCC(N2Cc3cc(N4CCC(CCC5CCN(c6ccc(-c7cnc8[nH]cc(C(=O)c9c(F)ccc(NS(=O)(=O)N%10CC[C@@H](F)C%10)c9F)c8c7)cc6)CC5)CC4)ccc3C2=O)C(=O)N1 (stereo partly drawn) [Compound 308, (3R)-N-[3-(5-{4-[4-(2-{1-[2-(2,6-dioxopiperidin-3-yl)-1-oxo-2,3-dihydro-1H-isoindol-5-yl]piperidin-4-yl}ethyl)piperidin-1-yl]phenyl}-1H-pyrrolo[2,3-b]pyridine-3-carbonyl)-2,4-difluorophenyl]-3-fluoropyrrolidine-1-sulfonamide]
DC50 (BRAF V600E): 0.05 to 0.5 µM
Dmax (BRAF V600E): < 35%
DC50 (BRAF G466V): > 0.03 µM

O=C1CCC(N2Cc3cc(C[C@H](O)CN4CC5(C4)CN(c4ccc(-c6cnc7[nH]cc(C(=O)c8c(F)ccc(NS(=O)(=O)N9CC[C@@H](F)C9)c8F)c7c6)cc4)C5)ccc3C2=O)C(=O)N1 (stereo partly drawn) [Compound 130, (3R)-N-{3-[5-(4-{6-[(2S)-3-[2-(2,6-dioxopiperidin-3-yl)-1-oxo-2,3-dihydro-1H-isoindol-5-yl]-2-hydroxypropyl]-2,6-diazaspiro[3.3]heptan-2-yl}phenyl)-1H-pyrrolo[2,3-b]pyridine-3-carbonyl]-2,4-difluorophenyl}-3-fluoropyrrolidine-1-sulfonamide]
DC50 (BRAF V600E): 0.005 to 0.05 µM
Dmax (BRAF V600E): 35 to 70%
DC50 (BRAF G466V): 0.001 to 0.01 µM
Dmax (BRAF G466V): 35 to 70%

O=C1CC[C@H](N2Cc3cc(N4C[C@H]5CN(CC6CCN(c7ccc(-c8cnc9[nH]cc(C(=O)c%10c(F)ccc(NS(=O)(=O)N%11CC[C@@H](F)C%11)c%10F)c9c8)cc7)CC6)C[C@H]5C4)ccc3C2=O)C(=O)N1 [Compound 57, (3R)-N-(3-{5-[4-(4-{[(3aR,6aS)-5-{2-[(3S)-2,6-dioxopiperidin-3-yl]-1-oxo-2,3-dihydro-1H-isoindol-5-yl}-octahydropyrrolo [3,4-c]pyrrol-2-yl]methyl}piperidin-1-yl)phenyl]-1H-pyrrolo[2,3-b]pyridine-3-carbonyl}-2,4-difluorophenyl)-3-fluoropyrrolidine-1-sulfonamide]
DC50 (BRAF V600E): < 0.005 µM
Dmax (BRAF V600E): 35 to 70%
DC50 (BRAF G466V): < 0.001 µM
Dmax (BRAF G466V): > 70%

O=C1CCC(N2Cc3cc(C4CCN(CC5CN(c6ccc(-c7cnc8[nH]cc(C(=O)c9c(F)ccc(NS(=O)(=O)N%10CC[C@@H](F)C%10)c9F)c8c7)cc6)C5)CC4)ccc3C2=O)C(=O)N1 (stereo partly drawn) [Compound 198, (3R)-N-[3-(5-{4-[3-({4-[2-(2,6-dioxopiperidin-3-yl)-1-oxo-2,3-dihydro-1H-isoindol-5-yl]piperidin-1-yl}methyl)azetidin-1-yl]phenyl}-1H-pyrrolo[2,3-b]pyridine-3-carbonyl)-2,4-difluorophenyl]-3-fluoropyrrolidine-1-sulfonamide]
DC50 (BRAF V600E): 0.005 to 0.05 µM
Dmax (BRAF V600E): < 35%
DC50 (BRAF G466V): 0.001 to 0.01 µM
Dmax (BRAF G466V): > 70%

O=C1CC[C@@H](N2Cc3cc(N4C[C@H]5CN(CC6CCN(c7ccc(-c8cnc9[nH]cc(C(=O)c%10c(F)ccc(NS(=O)(=O)N%11CC[C@@H](F)C%11)c%10F)c9c8)cc7)CC6)C[C@H]5C4)ccc3C2=O)C(=O)N1 [Compound 58, (3R)-N-(3-{5-[4-(4-{[(3aR,6aS)-5-{2-[(3R)-2,6-dioxopiperidin-3-yl]-1-oxo-2,3-dihydro-1H-isoindol-5-yl}-octahydropyrrolo [3,4-c]pyrrol-2-yl]methyl}piperidin-1-yl)phenyl]-1H-pyrrolo[2,3-b]pyridine-3-carbonyl}-2,4-difluorophenyl)-3-fluoropyrrolidine-1-sulfonamide]
DC50 (BRAF V600E): < 0.005 µM
Dmax (BRAF V600E): < 35%
DC50 (BRAF G466V): < 0.001 µM
Dmax (BRAF G466V): 35 to 70%

O=C1CC[C@H](NC(=O)N2CCCc3c(N4CCC(CN5CCN(c6ccc(-c7cnc8[nH]cc(C(=O)c9c(F)ccc(NS(=O)(=O)N%10CC[C@@H](F)C%10)c9F)c8c7)cc6)CC5)CC4)ccnc32)C(=O)N1 [Compound 371, 5-(4-{[4-(4-{3-[2,6-difluoro-3-({[(3R)-3-fluoropyrrolidin-1-yl]sulfonyl}amino)benzoyl]-1H-pyrrolo[2,3-b]pyridin-5-yl}phenyl)piperazin-1-yl]methyl}piperidin-1-yl)-N-[(3S)-2,6-dioxopiperidin-3-yl]-1,2,3,4-tetrahydro-1,8-naphthyridine-1-carboxamide]
DC50 (BRAF V600E): 0.05 to 0.5 µM
Dmax (BRAF V600E): > 70%
DC50 (BRAF G466V): 0.001 to 0.01 µM
Dmax (BRAF G466V): > 70%

O=C1CCC(N2Cc3cc(N4CCC5(CCN(CCc6ccc(-c7cnc8[nH]cc(C(=O)c9c(F)ccc(NS(=O)(=O)N%10CC[C@@H](F)C%10)c9F)c8c7)cc6)CC5)C4)ccc3C2=O)C(=O)N1 (stereo partly drawn) [Compound 10, (3R)-N-(3-{5-[4-(2-{2-[2-(2,6-dioxopiperidin-3-yl)-1-oxo-2,3-dihydro-1H-isoindol-5-yl]-2,8-diazaspiro[4.5]decan-8-yl}ethyl)phenyl]-1H-pyrrolo[2,3-b]pyridine-3-carbonyl}-2,4-difluorophenyl)-3-fluoropyrrolidine-1-sulfonamide]
DC50 (BRAF V600E): 0.005 to 0.05 µM
Dmax (BRAF V600E): 35 to 70%
DC50 (BRAF G466V): < 0.001 µM
Dmax (BRAF G466V): 35 to 70%

O=C1CCC(N2Cc3cc(N4CC[C@H]4COc4ccc(-c5cnc6[nH]cc(C(=O)c7c(F)ccc(NS(=O)(=O)N8CC[C@@H](F)C8)c7F)c6c5)cc4)ccc3C2=O)C(=O)N1 (stereo partly drawn) [Compound 23, (3R)-N-{3-[5-(4-{[(2S)-1-[2-(2,6-dioxopiperidin-3-yl)-1-oxo-2,3-dihydro-1H-isoindol-5-yl]azetidin-2-yl]methoxy}phenyl)-1H-pyrrolo[2,3-b]pyridine-3-carbonyl]-2,4-difluorophenyl}-3-fluoropyrrolidine-1-sulfonamide]
DC50 (BRAF V600E): > 0.5 µM
DC50 (BRAF G466V): > 0.03 µM

CN(c1ncc(-c2cnc3[nH]cc(C(=O)c4c(F)ccc(NS(=O)(=O)N5CC[C@@H](F)C5)c4F)c3c2)cn1)C1CCN(CC2CCN(c3ccc4c(c3)CN([C@H]3CCC(=O)NC3=O)C4=O)CC2)CC1 [Compound 287, (3R)-N-(3-{5-[2-({1-[(1-{2-[(3S)-2,6-dioxopiperidin-3-yl]-1-oxo-2,3-dihydro-1H-isoindol-5-yl}piperidin-4-yl)methyl]piperidin-4-yl}(methyl)amino)pyrimidin-5-yl]-1H-pyrrolo[2,3-b]pyridine-3-carbonyl}-2,4-difluorophenyl)-3-fluoropyrrolidine-1-sulfonamide]
DC50 (BRAF V600E): 0.005 to 0.05 µM
Dmax (BRAF V600E): 35 to 70%
DC50 (BRAF G466V): 0.001 to 0.01 µM
Dmax (BRAF G466V): 35 to 70%

O=C1CC[C@H](NC(=O)c2ccc(CCCN3CC4(C3)CN(c3ccc(-c5cnc6[nH]cc(C(=O)c7c(F)ccc(NS(=O)(=O)N8CC[C@@H](F)C8)c7F)c6c5)cc3)C4)cc2F)C(=O)N1 [Compound 355, 4-{3-[6-(4-{3-[2,6-difluoro-3-({[(3R)-3-fluoropyrrolidin-1-yl]sulfonyl}amino)benzoyl]-1H-pyrrolo[2,3-b]pyridin-5-yl}phenyl)-2,6-diazaspiro[3.3]heptan-2-yl]propyl}-N-[(3S)-2,6-dioxopiperidin-3-yl]-2-fluorobenzamide]
DC50 (BRAF V600E): 0.05 to 0.5 µM
Dmax (BRAF V600E): 35 to 70%
DC50 (BRAF G466V): > 0.03 µM

O=C1CCC(N2Cc3cc(CCCCCN4CCC(c5ccc(-c6cnc7[nH]cc(C(=O)c8c(F)ccc(NS(=O)(=O)N9CC[C@@H](F)C9)c8F)c7c6)cc5)CC4)ccc3C2=O)C(=O)N1 (stereo partly drawn) [Compound 65, (3R)-N-(3-{5-[4-(1-{5-[2-(2,6-dioxopiperidin-3-yl)-1-oxo-2,3-dihydro-1H-isoindol-5-yl]pentyl}piperidin-4-yl)phenyl]-1H-pyrrolo[2,3-b]pyridine-3-carbonyl}-2,4-difluorophenyl)-3-fluoropyrrolidine-1-sulfonamide]
DC50 (BRAF V600E): 0.005 to 0.05 µM
Dmax (BRAF V600E): 35 to 70%
DC50 (BRAF G466V): < 0.001 µM
Dmax (BRAF G466V): 35 to 70%

O=C1CCC(N2Cc3cc(N4CCC(CN5CC(Cc6ncc(-c7cnc8[nH]cc(C(=O)c9c(F)ccc(NS(=O)(=O)N%10CC[C@@H](F)C%10)c9F)c8c7)cn6)C5)CC4)ccc3C2=O)C(=O)N1 (stereo partly drawn) [Compound 307, (3R)-N-{3-[5-(2-{[1-({1-[2-(2,6-dioxopiperidin-3-yl)-1-oxo-2,3-dihydro-1H-isoindol-5-yl]piperidin-4-yl}methyl)azetdidin-3-yl]methyl}pyrimidin-5-yl)-1H-pyrrolo[2,3-b]pyridine-3-carbonyl]-2,4-difluorophenyl}-3-fluoropyrrolidine-1-sulfonamide]
DC50 (BRAF V600E): > 0.5 µM
Dmax (BRAF V600E): > 70%
DC50 (BRAF G466V): 0.001 to 0.01 µM
Dmax (BRAF G466V): 35 to 70%
